System: BV-173
Test: cell viability (% survival relative to DMSO control); higher = less cytotoxic
Conditions: drug1 concentration 100 nM; drug2 concentration 100 nM; 72 h
Description: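 8x8 drug-combination matrices (0–5000 nM; rosiglitazone and lestaurtinib 0–1000 nM) were run in BV-173 cells for 72 h with CellTiter-Glo read-out. Survival is normalised to DMSO and 10 µM bortezomib and clipped at 100%.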

Q: How did the cell viability turn out when `O=C(C1CC1)N1CC[C@@H](C=C2NNC(=O)N2c2ccc(-c3ccc4occc4c3)cc2)C1` + O=C(c1c2ccccc2cc2ccccc12)N1CCC(N2CCC[C@@H](C(=O)N3CCOCC3)C2)CC1 [CP-640186] was run?
A: > 100%

Q: How did the cell viability turn out when `CC(C)c1onc(-c2c(Cl)cccc2Cl)c1COc1ccc(/C=C/c2cccc(C(=O)O)c2)c(Cl)c1` [GW4064] + Cn1cc(-c2ccncc2)c(-c2ccc(OCc3ccc4ccccc4n3)cc2)n1 [PF-02545920] was run?
A: > 100%

Same assay, conditions: drug1 concentration 100 nM; drug2 concentration 500 nM; 72 h

Q: For `O=C(C1CC1)N1CC[C@@H](C=C2NNC(=O)N2c2ccc(-c3ccc4occc4c3)cc2)C1` + CS(=O)(=O)N1CCN(Cc2cc3nc(-c4cccc5[nH]ncc45)nc(N4CCOCC4)c3s2)CC1 [Pictilisib], which cell viability is on record?
A: > 100%

Q: How did the cell viability turn out when `O=C(C1CC1)N1CC[C@@H](C=C2NNC(=O)N2c2ccc(-c3ccc4occc4c3)cc2)C1` + C[C@H](NC(=O)c1sccc1OCc1ccc(Cl)cc1)c1ccccc1 [as1949490] was run?
A: > 100%

Q: With `O=C(C1CC1)N1CC[C@@H](C=C2NNC(=O)N2c2ccc(-c3ccc4occc4c3)cc2)C1` + O=C(c1c2ccccc2cc2ccccc12)N1CCC(N2CCC[C@@H](C(=O)N3CCOCC3)C2)CC1 [CP-640186] as the compound, how does the cell viability read?
A: > 100%

Q: `CC(C)c1onc(-c2c(Cl)cccc2Cl)c1COc1ccc(/C=C/c2cccc(C(=O)O)c2)c(Cl)c1` [GW4064] + Cn1cc(-c2ccncc2)c(-c2ccc(OCc3ccc4ccccc4n3)cc2)n1 [PF-02545920] was tested. Which cell viability did it give?
A: > 100%

Same assay, conditions: drug1 concentration 100 nM; drug2 concentration 1000 nM; 72 h

Q: How did the cell viability turn out when `O=C(C1CC1)N1CC[C@@H](C=C2NNC(=O)N2c2ccc(-c3ccc4occc4c3)cc2)C1` + CS(=O)(=O)N1CCN(Cc2cc3nc(-c4cccc5[nH]ncc45)nc(N4CCOCC4)c3s2)CC1 [Pictilisib] was run?
A: 92.8%

Q: Which cell viability does the source give for `O=C(C1CC1)N1CC[C@@H](C=C2NNC(=O)N2c2ccc(-c3ccc4occc4c3)cc2)C1` + C[C@H](NC(=O)c1sccc1OCc1ccc(Cl)cc1)c1ccccc1 [as1949490] here?
A: > 100%

Q: How did the cell viability turn out when `O=C(C1CC1)N1CC[C@@H](C=C2NNC(=O)N2c2ccc(-c3ccc4occc4c3)cc2)C1` + O=C(c1c2ccccc2cc2ccccc12)N1CCC(N2CCC[C@@H](C(=O)N3CCOCC3)C2)CC1 [CP-640186] was run?
A: 91.9%

Q: For `CC(C)c1onc(-c2c(Cl)cccc2Cl)c1COc1ccc(/C=C/c2cccc(C(=O)O)c2)c(Cl)c1` [GW4064] + Cn1cc(-c2ccncc2)c(-c2ccc(OCc3ccc4ccccc4n3)cc2)n1 [PF-02545920], which cell viability is on record?
A: 99.2%

Same assay, conditions: drug1 concentration 100 nM; drug2 concentration 5000 nM; 72 h

Q: Which cell viability does the source give for `O=C(C1CC1)N1CC[C@@H](C=C2NNC(=O)N2c2ccc(-c3ccc4occc4c3)cc2)C1` + CS(=O)(=O)N1CCN(Cc2cc3nc(-c4cccc5[nH]ncc45)nc(N4CCOCC4)c3s2)CC1 [Pictilisib] here?
A: > 100%

Q: How did the cell viability turn out when `O=C(C1CC1)N1CC[C@@H](C=C2NNC(=O)N2c2ccc(-c3ccc4occc4c3)cc2)C1` + C[C@H](NC(=O)c1sccc1OCc1ccc(Cl)cc1)c1ccccc1 [as1949490] was run?
A: 46%

Q: Which cell viability does the source give for `O=C(C1CC1)N1CC[C@@H](C=C2NNC(=O)N2c2ccc(-c3ccc4occc4c3)cc2)C1` + O=C(c1c2ccccc2cc2ccccc12)N1CCC(N2CCC[C@@H](C(=O)N3CCOCC3)C2)CC1 [CP-640186] here?
A: 99.5%

Q: How did the cell viability turn out when `CC(C)c1onc(-c2c(Cl)cccc2Cl)c1COc1ccc(/C=C/c2cccc(C(=O)O)c2)c(Cl)c1` [GW4064] + Cn1cc(-c2ccncc2)c(-c2ccc(OCc3ccc4ccccc4n3)cc2)n1 [PF-02545920] was run?
A: 96.2%

Same assay, conditions: drug1 concentration 500 nM; drug2 concentration 5 nM; 72 h

Q: `O=C(C1CC1)N1CC[C@@H](C=C2NNC(=O)N2c2ccc(-c3ccc4occc4c3)cc2)C1` + CS(=O)(=O)N1CCN(Cc2cc3nc(-c4cccc5[nH]ncc45)nc(N4CCOCC4)c3s2)CC1 [Pictilisib] was tested. Which cell viability did it give?
A: 84.4%

Q: How did the cell viability turn out when `O=C(C1CC1)N1CC[C@@H](C=C2NNC(=O)N2c2ccc(-c3ccc4occc4c3)cc2)C1` + C[C@H](NC(=O)c1sccc1OCc1ccc(Cl)cc1)c1ccccc1 [as1949490] was run?
A: 91.8%

Q: Which cell viability does the source give for `O=C(C1CC1)N1CC[C@@H](C=C2NNC(=O)N2c2ccc(-c3ccc4occc4c3)cc2)C1` + O=C(c1c2ccccc2cc2ccccc12)N1CCC(N2CCC[C@@H](C(=O)N3CCOCC3)C2)CC1 [CP-640186] here?
A: 97.3%

Q: Which cell viability does the source give for `CC(C)c1onc(-c2c(Cl)cccc2Cl)c1COc1ccc(/C=C/c2cccc(C(=O)O)c2)c(Cl)c1` [GW4064] + Cn1cc(-c2ccncc2)c(-c2ccc(OCc3ccc4ccccc4n3)cc2)n1 [PF-02545920] here?
A: > 100%

Same assay, conditions: drug1 concentration 500 nM; drug2 concentration 10 nM; 72 h

Q: `O=C(C1CC1)N1CC[C@@H](C=C2NNC(=O)N2c2ccc(-c3ccc4occc4c3)cc2)C1` + CS(=O)(=O)N1CCN(Cc2cc3nc(-c4cccc5[nH]ncc45)nc(N4CCOCC4)c3s2)CC1 [Pictilisib] was tested. Which cell viability did it give?
A: 95.5%

Q: How did the cell viability turn out when `O=C(C1CC1)N1CC[C@@H](C=C2NNC(=O)N2c2ccc(-c3ccc4occc4c3)cc2)C1` + C[C@H](NC(=O)c1sccc1OCc1ccc(Cl)cc1)c1ccccc1 [as1949490] was run?
A: > 100%

Q: `O=C(C1CC1)N1CC[C@@H](C=C2NNC(=O)N2c2ccc(-c3ccc4occc4c3)cc2)C1` + O=C(c1c2ccccc2cc2ccccc12)N1CCC(N2CCC[C@@H](C(=O)N3CCOCC3)C2)CC1 [CP-640186] was tested. Which cell viability did it give?
A: > 100%

Q: With `CC(C)c1onc(-c2c(Cl)cccc2Cl)c1COc1ccc(/C=C/c2cccc(C(=O)O)c2)c(Cl)c1` [GW4064] + Cn1cc(-c2ccncc2)c(-c2ccc(OCc3ccc4ccccc4n3)cc2)n1 [PF-02545920] as the compound, how does the cell viability read?
A: > 100%

Same assay, conditions: drug1 concentration 500 nM; drug2 concentration 50 nM; 72 h

Q: Which cell viability does the source give for `O=C(C1CC1)N1CC[C@@H](C=C2NNC(=O)N2c2ccc(-c3ccc4occc4c3)cc2)C1` + CS(=O)(=O)N1CCN(Cc2cc3nc(-c4cccc5[nH]ncc45)nc(N4CCOCC4)c3s2)CC1 [Pictilisib] here?
A: 94.4%

Q: How did the cell viability turn out when `O=C(C1CC1)N1CC[C@@H](C=C2NNC(=O)N2c2ccc(-c3ccc4occc4c3)cc2)C1` + C[C@H](NC(=O)c1sccc1OCc1ccc(Cl)cc1)c1ccccc1 [as1949490] was run?
A: > 100%

Q: Which cell viability does the source give for `O=C(C1CC1)N1CC[C@@H](C=C2NNC(=O)N2c2ccc(-c3ccc4occc4c3)cc2)C1` + O=C(c1c2ccccc2cc2ccccc12)N1CCC(N2CCC[C@@H](C(=O)N3CCOCC3)C2)CC1 [CP-640186] here?
A: 91.1%

Q: With `CC(C)c1onc(-c2c(Cl)cccc2Cl)c1COc1ccc(/C=C/c2cccc(C(=O)O)c2)c(Cl)c1` [GW4064] + Cn1cc(-c2ccncc2)c(-c2ccc(OCc3ccc4ccccc4n3)cc2)n1 [PF-02545920] as the compound, how does the cell viability read?
A: > 100%

Same assay, conditions: drug1 concentration 500 nM; drug2 concentration 100 nM; 72 h

Q: Which cell viability does the source give for `O=C(C1CC1)N1CC[C@@H](C=C2NNC(=O)N2c2ccc(-c3ccc4occc4c3)cc2)C1` + CS(=O)(=O)N1CCN(Cc2cc3nc(-c4cccc5[nH]ncc45)nc(N4CCOCC4)c3s2)CC1 [Pictilisib] here?
A: 94.3%

Q: With `O=C(C1CC1)N1CC[C@@H](C=C2NNC(=O)N2c2ccc(-c3ccc4occc4c3)cc2)C1` + C[C@H](NC(=O)c1sccc1OCc1ccc(Cl)cc1)c1ccccc1 [as1949490] as the compound, how does the cell viability read?
A: > 100%

Q: How did the cell viability turn out when `O=C(C1CC1)N1CC[C@@H](C=C2NNC(=O)N2c2ccc(-c3ccc4occc4c3)cc2)C1` + O=C(c1c2ccccc2cc2ccccc12)N1CCC(N2CCC[C@@H](C(=O)N3CCOCC3)C2)CC1 [CP-640186] was run?
A: > 100%

Q: How did the cell viability turn out when `CC(C)c1onc(-c2c(Cl)cccc2Cl)c1COc1ccc(/C=C/c2cccc(C(=O)O)c2)c(Cl)c1` [GW4064] + Cn1cc(-c2ccncc2)c(-c2ccc(OCc3ccc4ccccc4n3)cc2)n1 [PF-02545920] was run?
A: > 100%

Same assay, conditions: drug1 concentration 500 nM; drug2 concentration 500 nM; 72 h

Q: Which cell viability does the source give for `O=C(C1CC1)N1CC[C@@H](C=C2NNC(=O)N2c2ccc(-c3ccc4occc4c3)cc2)C1` + CS(=O)(=O)N1CCN(Cc2cc3nc(-c4cccc5[nH]ncc45)nc(N4CCOCC4)c3s2)CC1 [Pictilisib] here?
A: > 100%

Q: For `O=C(C1CC1)N1CC[C@@H](C=C2NNC(=O)N2c2ccc(-c3ccc4occc4c3)cc2)C1` + C[C@H](NC(=O)c1sccc1OCc1ccc(Cl)cc1)c1ccccc1 [as1949490], which cell viability is on record?
A: 91.2%

Q: With `O=C(C1CC1)N1CC[C@@H](C=C2NNC(=O)N2c2ccc(-c3ccc4occc4c3)cc2)C1` + O=C(c1c2ccccc2cc2ccccc12)N1CCC(N2CCC[C@@H](C(=O)N3CCOCC3)C2)CC1 [CP-640186] as the compound, how does the cell viability read?
A: > 100%

Q: How did the cell viability turn out when `CC(C)c1onc(-c2c(Cl)cccc2Cl)c1COc1ccc(/C=C/c2cccc(C(=O)O)c2)c(Cl)c1` [GW4064] + Cn1cc(-c2ccncc2)c(-c2ccc(OCc3ccc4ccccc4n3)cc2)n1 [PF-02545920] was run?
A: > 100%

Same assay, conditions: drug1 concentration 500 nM; drug2 concentration 1000 nM; 72 h

Q: `O=C(C1CC1)N1CC[C@@H](C=C2NNC(=O)N2c2ccc(-c3ccc4occc4c3)cc2)C1` + CS(=O)(=O)N1CCN(Cc2cc3nc(-c4cccc5[nH]ncc45)nc(N4CCOCC4)c3s2)CC1 [Pictilisib] was tested. Which cell viability did it give?
A: 80%

Q: How did the cell viability turn out when `O=C(C1CC1)N1CC[C@@H](C=C2NNC(=O)N2c2ccc(-c3ccc4occc4c3)cc2)C1` + C[C@H](NC(=O)c1sccc1OCc1ccc(Cl)cc1)c1ccccc1 [as1949490] was run?
A: 80.2%
